From ChEMBL document CHEMBL3988442, “University of Dundee, Small-Polar-MMV Screening Library” (2021)

Test system: Plasmodium falciparum
Assay: Calibr Malaria Delayed Death Assay SOP
Format: functional, organism-based
Details: for IC50: Plasmodium falciparum

Q: With `CC(C)(C)n1cc(C2=CCN(CCc3ccccn3)CC2)cn1` as the molecule, how does the pIC50 read?
A: 6.143

Q: What about the IC50 of the same molecule?
A: 1030 nM

Q: Which results are given for `CC(C)NC(=O)C1(Cc2ccccc2-c2cccs2)CCNC1` (centres undefined)?
A: pIC50: 6.06; IC50: 982 nM

Q: Which results are given for `Fc1ccc(CN2CCC3(CC2)CCN(Cc2nccs2)CC3)cc1.O=C(O)C(F)(F)F.O=C(O)C(F)(F)F`?
A: pIC50: 6.206; IC50: 708 nM

Q: What does the source list for `COc1c(C)cnc(CN2CCC(N(C)C(C)C(N)=O)CC2)c1C` (centres undefined)?
A: pIC50: 6.018; IC50: 876 nM

Q: `CC(C)Oc1ncnc2c1CCN(Cc1ccco1)CC2.O=C(O)C(F)(F)F` was tested. Which pIC50 did it give?
A: 6.106

Q: And the IC50?
A: 1020 nM

Q: Which results are given for `COc1ccc2[nH]c(C[C@@H]3C[C@@H](C(C)C)[C@H](CN(C)C)C=C3C)nc2c1`?
A: pIC50: 6.245; IC50: 615 nM

Q: `O=C(c1ccccc1)C1CCN(Cc2cc3c(cc2O)CCC3)CC1` was tested. Which pIC50 did it give?
A: 6.259

Q: And the IC50?
A: 613 nM

Q: Which pIC50 does the source give for `Cc1ncc(CN(C)C2CCCN(CCc3ccccc3)C2)n1C` (centres undefined) here?
A: 6.013

Q: And the IC50?
A: 783 nM

Q: `CC(C)Oc1ccc(C(O)CNCc2ccccc2C(F)(F)F)cc1` (centres undefined) was tested. Which pIC50 did it give?
A: 5.963

Q: And the IC50?
A: 1150 nM

Q: `Cc1cccc(C)c1Nc1noc2c1CN(C(=O)c1c[nH]nc1C)CC2` was tested. Which pIC50 did it give?
A: 6.277

Q: What about the IC50 of the same molecule?
A: 691 nM

Q: What does the source list for `CCc1ccc(CN(CCN(C)C)Cc2ccc(C)s2)nc1`?
A: pIC50: 6.04; IC50: 965 nM

Q: Which pIC50 does the source give for `CN1CCC2(Cc3ccccc3CN(C(=O)Cc3cccc(Cl)c3)C2)C1` (centres undefined) here?
A: 6.082

Q: What about the IC50 of the same molecule?
A: 836 nM

Q: `I.c1cc2c(cc1C1(CNC3=NCCN3)CCCC1)OCCO2` was tested. Which pIC50 did it give?
A: 6.321

Q: What about the IC50 of the same molecule?
A: 547 nM

Q: Which pIC50 does the source give for `CCC[C@H]1CN(S(=O)(=O)c2ccc(-c3c(C)noc3C)s2)C[C@@H]1N` here?
A: 6.179

Q: And the IC50?
A: 798 nM

Q: Which results are given for `CC(C)(C)CNCC1(O)CCCN(Cc2ccccc2F)C1=O` (centres undefined)?
A: pIC50: 6.115; IC50: 770 nM

Q: Which pIC50 does the source give for `Cc1ccc(C(C)NCCc2nccn2Cc2ccccc2)o1` (centres undefined) here?
A: 5.88

Q: And the IC50?
A: 1260 nM

Q: How did the pIC50 turn out when `Clc1ccc(C2(CNC3=NCCN3)CCCC2)cc1.I` was run?
A: 6.736

Q: What about the IC50 of the same molecule?
A: 226 nM

Q: For `COc1ccccc1C(C)(C)NCc1ccc(C)o1`, which pIC50 is on record?
A: 5.785

Q: And the IC50?
A: 1220 nM

Q: What does the source list for `CCc1ccc(C2c3nc[nH]c3CCN2Cc2nccn2CC)nc1` (centres undefined)?
A: pIC50: 6.077; IC50: 819 nM

Q: `COc1cccc(CN2CC(=O)N(c3ccccc3C)CC2C)c1OC` (centres undefined) was tested. Which pIC50 did it give?
A: 5.928

Q: What about the IC50 of the same molecule?
A: 1420 nM

Q: Which results are given for `CC(NCCc1nccn1Cc1ccccc1)c1cccs1` (centres undefined)?
A: pIC50: 5.98; IC50: 1290 nM

Q: Which results are given for `Cc1nc(-c2ccc(F)c(F)c2)cc(C2CCNCC2)n1.Cl`?
A: pIC50: 6.123; IC50: 797 nM

Q: For `CC(C)n1ccnc1C1CCCN(c2ccnc3ccccc23)C1` (centres undefined), which pIC50 is on record?
A: 6.118

Q: What about the IC50 of the same molecule?
A: 829 nM

Q: What does the source list for `COc1ccccc1C1(NCc2c(C)nc3c(C)cccn23)CCCC1.Cl`?
A: pIC50: 6.178; IC50: 748 nM

Q: Which pIC50 does the source give for `OCc1csc(N2CCCC(COc3cccc(F)c3)C2)n1` (centres undefined) here?
A: 6.326

Q: What about the IC50 of the same molecule?
A: 363 nM

Q: What does the source list for `Cc1cccc(Nc2cccc(C3CCCN(Cc4ncc[nH]4)C3)n2)n1` (centres undefined)?
A: pIC50: 6.378; IC50: 465 nM

Q: For `Cc1ccccc1N1CCCN(CC2(O)CCCNC2)CC1` (centres undefined), which pIC50 is on record?
A: 6.443

Q: And the IC50?
A: 314 nM

Q: Which results are given for `Cc1ccc(-c2ccccc2CC2(C(=O)NC(C)C)CCCNC2)cc1` (centres undefined)?
A: pIC50: 6.259; IC50: 491 nM

Q: Which results are given for `CO[C@H]1CN(C(C)C)C[C@@H]1NC(=O)c1cc(-c2ccccc2O)n[nH]1`?
A: pIC50: 6.125; IC50: 891 nM

Q: For `CCN1CCC(CNCc2cc(C)ccc2OC)C1` (centres undefined), which pIC50 is on record?
A: 6.037

Q: And the IC50?
A: 1150 nM

Q: Which results are given for `CC(O)CN1CCC(CNCc2cccc(Cl)c2)CC1` (centres undefined)?
A: pIC50: 6.249; IC50: 599 nM

Q: Which results are given for `CN(C)[C@@H]1CCN(c2ncc(F)cn2)[C@H]1Cc1ccccc1.O=C(O)C(F)(F)F.O=C(O)C(F)(F)F`?
A: pIC50: 6.038; IC50: 868 nM

Q: What does the source list for `Oc1cccc2ccc(CN3CCC4(CCNCC4)C3)nc12`?
A: pIC50: 6.257; IC50: 736 nM

Q: What does the source list for `Cl.OC1(c2ccc(F)cc2)CCN(Cc2ccccc2N2CCCC2)CC1`?
A: pIC50: 5.924; IC50: 850 nM

Q: What does the source list for `CCN1CCC2(CC1)CC(NCc1ccncc1)c1ccccc1O2.O=C(O)C(F)(F)F.O=C(O)C(F)(F)F.O=C(O)C(F)(F)F` (centres undefined)?
A: pIC50: 6.198; IC50: 579 nM

Q: With `COc1cc(CNCC(O)c2ccc(F)cc2F)cc2c1OCO2` (centres undefined) as the molecule, how does the pIC50 read?
A: 6.074

Q: What about the IC50 of the same molecule?
A: 972 nM

Q: `NC1(C(=O)NCC2CCCN(Cc3ccccc3F)C2)CCCC1` (centres undefined) was tested. Which pIC50 did it give?
A: 6.224

Q: And the IC50?
A: 470 nM

Q: `CC(=O)N(c1ccc(C)cc1)c1nc(CN2CCCC(C)C2)cs1` (centres undefined) was tested. Which pIC50 did it give?
A: 5.762

Q: What about the IC50 of the same molecule?
A: 1610 nM

Q: With `CCN1CCN(C[C@@H]2CN(c3ncc(Cl)cc3F)C[C@@H]2CO)CC1` as the molecule, how does the pIC50 read?
A: 6.156

Q: And the IC50?
A: 651 nM

Q: `CC1CN(Cc2ccccc2Cn2cccn2)CCN1C` (centres undefined) was tested. Which pIC50 did it give?
A: 6.079

Q: What about the IC50 of the same molecule?
A: 1080 nM

Q: With `CCC1CN(C(=O)c2ccc(Cl)cc2O)CCN1C(C)C` (centres undefined) as the molecule, how does the pIC50 read?
A: 5.81

Q: What about the IC50 of the same molecule?
A: 1130 nM

Q: Which results are given for `CCNC(=O)N(C)C1CCN(Cc2ncc(C)c(OC)c2C)CC1`?
A: pIC50: 5.844; IC50: 1590 nM

Q: How did the pIC50 turn out when `CN(C)CCN(Cc1cccnc1)C(=O)c1ccn(-c2ccccc2)n1` was run?
A: 5.955

Q: What about the IC50 of the same molecule?
A: 876 nM

Q: `CC(O)CN1CCC(CNCc2cccc(C(F)(F)F)c2)CC1` (centres undefined) was tested. Which pIC50 did it give?
A: 6.332

Q: What about the IC50 of the same molecule?
A: 751 nM

Q: What does the source list for `Cc1ccc(C)c(OCCNC(=O)[C@@H]2CCCCN2)c1`?
A: pIC50: 6.461; IC50: 362 nM

Q: How did the pIC50 turn out when `COc1cccc(CNCc2ccc(F)cc2Cl)c1O` was run?
A: 6.118

Q: And the IC50?
A: 712 nM

Q: Which pIC50 does the source give for `COc1cccc(-n2ccc3nc(N4CCCC4)ncc3c2=O)c1` here?
A: 5.801

Q: And the IC50?
A: 1470 nM
